According to US8022069B2, “Substituted piperidines as renin inhibitors” (Novartis AG, priority 2008, dated 2011):

Target: T1, renin (Homo sapiens, UniProt P00797)
T1 construct: This test measures the formation of angiotensin I in human plasma; from tissue; host or cells: human plasma
T1 sequence (P00797 67-406): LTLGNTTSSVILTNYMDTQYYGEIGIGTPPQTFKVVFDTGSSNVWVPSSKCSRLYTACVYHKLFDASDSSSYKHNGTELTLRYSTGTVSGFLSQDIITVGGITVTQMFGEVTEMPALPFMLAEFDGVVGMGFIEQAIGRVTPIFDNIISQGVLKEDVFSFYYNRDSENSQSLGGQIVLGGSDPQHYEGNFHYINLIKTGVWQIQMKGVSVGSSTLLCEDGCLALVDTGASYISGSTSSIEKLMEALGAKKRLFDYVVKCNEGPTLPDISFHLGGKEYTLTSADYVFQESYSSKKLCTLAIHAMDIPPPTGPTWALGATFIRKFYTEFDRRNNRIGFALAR
Assay: formation of angiotensin I in human plasma, radioimmunoassay (Nussberger et al.)
Format: biochemical
Details: values in the range of about, read-out: IC50, inhibition of the formation of angiotensin I
Procedure: The effect of renin inhibitors is detected inter alia experimentally by means of in vitro tests where the reduction in the formation of angiotensin I is measured in various systems (human plasma, purified human renin together with synthetic or natural renin substrate). The following in vitro test of Nussberger et al. (1987) J. Cardiovascular Pharmacol., Vol. 9, pp. 39-44, is used inter alia. This test measures the formation of angiotensin I in human plasma. The amount of angiotensin I formed is determined in a subsequent radioimmunoassay. The effect of inhibitors on the formation of angiotensin I is tested in this system by adding various concentrations of these substances. The IC50 is defined as the concentration of the particular inhibitor which reduces the formation of angiotensin I by 50%. The compounds of the present invention show inhibitory effects in the in vitro systems at minimal concentrations of about 10^−6 mol/l to about 10^−10 mol/l.

Row | SMILES | IC50 [nM]
1 | CCO[C@H](C)COCc1ccc([C@H]2C[C@H](CCn3cnnc3)NC[C@@H]2OCc2ccc3c(c2)N(CCCOC)CCO3)cc1 [Example 9, 6-[(3R,4R,6R)-4-[4-((R)-2-Ethoxy-propoxymethyl)-phenyl]-6-(2-[1,2,4]triazol-4-yl-ethyl) -piperidin-3-yloxymethyl]-4-(3-methoxy-propyl)-3,4-dihydro-2H-benzo[1,4]oxazine] | 0.1 to 10
2 | CCO[C@H](C)COCc1ccc([C@H]2C[C@@H](CC(C)(C)C(=O)NC)NC[C@@H]2OCc2ccc3c(c2)N(CCCOC)CCO3)cc1 [Example 5, 3-{(2S,4R,5R)-4-[4-((R)-2-Ethoxy-propoxymethyl)-phenyl]-5-[4-(3-methoxy-propyl) -3,4-dihydro-2H-benzo[1,4]oxazin-6-ylmethoxy]-piperidin-2-yl}-2,2,N-trimethyl-propionamide] | 0.1 to 10
